Data on 23 compounds can be found in patent publication US20130252930A1 (BIOMARIN PHARMACEUTICAL INC., priority 2010, published 2013).

SMILES strings stand for the structures. Like-named read-outs stand apart in the source and are kept apart here. Some results are limits rather than exact numbers.

Holding throughout (type): biochemical
The target of assay [1] is T1, CYP17 (human testicular microsome) (Homo sapiens, UniProt P05093).
T1 construct: using microsomal fraction from human testis (Celsis Cat #S00110) as the enzyme source; tissue Celsis S00110; host or cells: human testis microsomal fraction
T1 sequence (P05093 1-508): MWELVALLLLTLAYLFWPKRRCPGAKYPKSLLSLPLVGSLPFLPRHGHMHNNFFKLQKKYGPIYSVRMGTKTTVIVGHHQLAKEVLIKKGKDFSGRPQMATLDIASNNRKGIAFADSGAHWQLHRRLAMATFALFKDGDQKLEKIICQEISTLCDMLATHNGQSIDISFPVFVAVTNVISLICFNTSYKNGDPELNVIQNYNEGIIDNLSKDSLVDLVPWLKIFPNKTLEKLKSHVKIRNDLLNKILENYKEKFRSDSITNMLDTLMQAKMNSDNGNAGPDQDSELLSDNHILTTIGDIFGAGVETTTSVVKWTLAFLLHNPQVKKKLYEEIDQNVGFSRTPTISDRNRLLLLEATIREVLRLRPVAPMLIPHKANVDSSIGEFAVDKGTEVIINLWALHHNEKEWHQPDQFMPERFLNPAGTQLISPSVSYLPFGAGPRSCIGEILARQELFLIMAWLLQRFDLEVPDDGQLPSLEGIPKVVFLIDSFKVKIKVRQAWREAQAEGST
The assay can be described thus: CYP17 enzymatic assay (% inhibition at 10 nM), version 1 (Biological Example 5).

Assay [2] concerns the target T1, CYP17 (human testicular microsome). The assay can be described thus: CYP17 enzymatic assay (% inhibition at 1 nM) (Biological Example 12). The settings on record: compound at 1 nM.
Method: The assays were performed in 96-well plates. Typical assays were carried out in total 100 μL volume that included test compounds at 1 nM concentration, 1× reaction buffer, 0.5 mM NADPH, 1 μM 17α-hydroxypregnenolone, and 2.5 μL of human testicular microsome (Celsis. Cat #S00110). Reaction without test compound served as a positive control. Reactions were allowed to incubate at 37° C. for 90 min with gentle shaking. The reaction was stopped by directly applying the enzymatic reaction mixture to ELISA plate for evaluation of DHEA concentration according to manufacturer's protocol (IBL America). A standard curve (OD450 vs. DHEA concentration) was generated using purified DHEA. […] Percent inhibition (inhibition %) of the compound was calculated using normalized DHEA concentration based on following formula: 100−([DHEA] of compound/[DHEA] of positive control*100).
Assay [3] shares this target. In words: CYP17 enzymatic assay (IC50) (Biological Example 4). Particulars: human testicular microsome.
The mark [4] stands for this setting: 10 nM compound, DHEA by ELISA, read-out: Biological Example No. 5: CYP17 percent inhibition at 10 nM (version 1).
Setting [5] is: read-out: Biological Example No. 12: CYP17 enzymatic assay % inhibition at 1 nM.
The mark [6] stands for this setting: read-out: Biological Example No. 4: CYP17 enzymatic assay IC50.
[7] abbreviates: read-out: CYP17 enzymatic assay % inhibition at 1 nM (Biological Example No. 12).
[8] abbreviates: read-out: CYP17 enzymatic assay IC50 (Biological Example No. 4).

Turning to `Cc1cncc(C2=CC[C@H]3[C@@H]4CCN5CCCCC[C@]5(C)[C@H]4CC[C@]23C)c1` [Compound 45, (11aR,13aS)-11a,13a-dimethyl-1-(5-methylpyridin-3-yl)-3a,3b,4,5,7,8,9,10,11,11a,11b,12,13,13a-tetradecahydro-3H-azepino[2,1-a]cyclopenta[f]isoquinoline], the inhibition at 0.01 µM in assay [1] (setting [4]) was 1 to 50%.
Same read-out and setting: next, `C[C@]12CCC(=O)NCC1CCC1C2CC[C@]2(C)C(n3ccnc3)=CCC12` (stereo partly drawn) [Compound 136, (5aR,7aS)-8-(1H-imidazol-1-yl)-5a,7a-dimethyl-1,2,5,5a,5b,6,7,7a,10,10a,10b,11,12,12a-tetradecahydrocyclopenta[5,6]naphtho[2,1-c]azepin-3(4H)-one]: 50 to 80%.
Same read-out and setting: under `CCOc1cncc(C2=CC[C@H]3[C@@H]4CC[C@H]5CCOCC[C@]5(C)[C@H]4CC[C@]23C)c1` [Compound 124, 3-((5aS,5bS,7aS,10aS,10bR,12aS)-5a,7a-dimethyl-2,4,5,5a,5b,6,7,7a,10,10a,10b,11,12,12a-tetradecahydro-1H-cyclopenta[5,6]naphtho[1,2-d]oxepin-8-yl)-5-ethoxypyridine] stands 50 to 80%.
On to `Cc1cncc(C2=CCC3C4CCC5=CN(C)CCC[C@]5(C)C4CC[C@]23C)c1` (stereo partly drawn) [Compound 446, (5aR,7aS)-2,5a,7a-trimethyl-8-(5-methylpyridin-3-yl)-2,3,4,5,5a,5b,6,7,7a,10,10a,10b,11,12-tetradecahydrocyclopenta[5,6]naphtho[2,1-c]azepine], for which the inhibition at 0.01 µM in assay [1] (setting [4]) lay within 1 to 50%.
`CN1CC[C@@]2(C)C(=CC1=O)CC[C@@H]1[C@@H]2CC[C@]2(C)C(n3cnc4ccccc43)=CC[C@@H]12` [Compound 155]: the inhibition at 0.01 µM in assay [1] (setting [4]) was 1 to 50%.
Still for that read-out and setting: under `Cc1cncc(C2=CC[C@H]3[C@@H]4CCC5N(C)C(=O)COC[C@]5(C)[C@H]4CC[C@]23C)c1` (stereo partly drawn) [Compound 445, (5aR,5bS,7aS,10aS,10bS)-1,5a,7a-trimethyl-8-(5-methylpyridin-3-yl)-5,5a,5b,6,7,7a,10,10a,10b,11,12,12a-dodecahydro-1H-cyclopenta[5,6]naphtho[2,1-e][1,4]oxazepin-2(3H)-one] stands 1 to 50%; under `Cc1cncc(C2=CC[C@H]3[C@@H]4CC=C5CCCC[C@]5(C)[C@H]4CC[C@]23C)c1` [Compound 65, 3-((10R,13S)-10,13-dimethyl-2,3,4,7,8,9,10,11,12,13,14,15-dodecahydro-1H-cyclopenta[a]phenanthren-17-yl)-5-methylpyridme], 50 to 80%; under `COc1cncc(C2=CC[C@H]3[C@@H]4CC=C5CCCC[C@]5(C)[C@H]4CC[C@]23C)c1` [Compound 66, 3-((10R,13S)-10,13-dimethyl-2,3,4,7,8,9,10,11,12,13,14,15-dodecahydro-1H-cyclopenta[a]phenanthren-17-yl)-5-methoxypyridine], 50 to 80%.
As to `C[C@]12CCC(=O)NC[C@@H]1CC[C@@H]1[C@@H]2CC[C@]2(C)C(n3ccnn3)=CC[C@@H]12` [Compound 138, (5aR,5bS,7aS,10aS,10bR,12aR)-5a,7a-dimethyl-8-(1H-1,2,3-triazol-1-yl)-1,2,5,5a,5b,6,7,7a,10,10a,10b,11,12,12a-tetradecahydrocyclopenta[5,6]naphtho[2,1-c]azepin-3(4H)-one], the inhibition at 0.01 µM in assay [1] (setting [4]) lay in the range of 1 to 50%.
With `C[C@]12CCCCC[C@@H]1CC[C@@H]1[C@@H]2CC[C@]2(C)C(c3cnccc3Cl)=CC[C@@H]12` [Compound 96, 4-chloro-3-((3aS,3bR,5aR,10aS,10bS,12aS)-10a,12a-dimethyl-3,3a,3b,4,5,5a,6,7,8,9,10,10a,10b,11,12,12a-hexadecahydrocyclohepta[a]cyclopenta[f]naphthalen-1-yl)pyridine], the inhibition at 0.01 µM in assay [1] (setting [4]) lay within 1 to 50%.
The same measure, in the same setting: next, `COc1cncc(C2=CC[C@H]3[C@@H]4CCN5CCCCC[C@]5(C)[C@H]4CC[C@]23C)c1` [Compound 47, (11aR,13aS)-1-(5-methoxypyridin-3-yl)-11a,13a-dimethyl-3a,3b,4,5,7,8,9,10,11,11a,11b,12,13,13a-tetradecahydro-3H-azepino[2,1-a]cyclopenta[f]isoquinoline]: 1 to 50%.
With `COC1CC[C@@]2(C)[C@@H](CC[C@@H]3[C@@H]2CC[C@]2(C)C(c4cncc(C)c4)=CC[C@@H]32)C1` (stereo partly drawn) [Compound 450, 3-((5S,8R,9S,10S,13S,14S)-3-methoxy-10,13-dimethyl-2,3,4,5,6,7,8,9,10,11,12,13,14,15-tetradecahydro-1H-cyclopenta[a]phenanthren-17-yl)-5-methylpyridine], the inhibition at 0.01 µM in assay [1] (compound at 10 nM, read-out: CYP17 enzymatic assay % inhibition at 10 nM (Biological Example No. 5)) was 1 to 50%.
Consider `CC1=C2CC[C@@H]3[C@H](CC[C@]4(C)C(c5cccnc5)=CC[C@@H]34)[C@@]2(C)CCC1O` (mixture of isomers) [Compound 302, (10R,13S)-4,10,13-trimethyl-17-(pyridin-3-yl)-2,3,6,7,8,9,10,11,12,13,14,15-dodecahydro-1H-cyclopenta[a]phenanthren-3-ol], for which, in assay [2] (setting [5]), the inhibition at 0.001 µM was in the range of 10 to 50%. Also, the IC50 in assay [3] (setting [6]) was less than 11 nM.
For `CCc1cncc(C2=CC[C@H]3[C@@H]4CC[C@H]5CCCCC[C@]5(C)[C@H]4CC[C@]23C)c1` [Compound 93, 3-((3aS,3bR,5aR,10aS,10bS,12aS)-10a,12a-dimethyl-3,3a,3b,4,5,5a,6,7,8,9,10,10a,10b,11,12,12a-hexadecahydrocyclohepta[a]cyclopenta[f]naphthalen-1-yl)-5-ethylpyridine], the inhibition at 0.01 µM in assay [1] (setting [4]) was 1 to 50%.
With `COc1cncc(C2=CC[C@H]3[C@@H]4CCC5=CCN(C)CC[C@]5(C)[C@H]4CC[C@]23C)c1` [Compound 148], the inhibition at 0.01 µM in assay [1] (setting [4]) was in the range of 1 to 50%.
The same measure, in the same setting: next, `C[C@]12CC[C@H]3[C@@H](CC[C@H]4CNC(=O)CC[C@@]43C)C1=CC=C2c1cccnc1` [Compound 166, (5aR,5bS,7aS,10bR,12aR)-5a,7a-dimethyl-8-(pyridin-3-yl)-1,2,5,5a,5b,6,7,7a,10b,11,12,12a-dodecahydrocyclopenta[5,6]naphtho[2,1-c]azepin-3(4H)-one]: 50 to 80%.
Still for that read-out and setting: next, `Cc1cncc(C2=CC[C@H]3[C@@H]4CC[C@H]5CCCCC[C@]5(C)[C@H]4CC[C@]23C)c1` [Compound 91, 3-((3aS,3bR,5aR,10aS,10bS,12aS)-10a,12a-dimethyl-3,3a,3b,4,5,5a,6,7,8,9,10,10a,10b,11,12,12a-hexadecahydrocyclohepta[a]cyclopenta[f]naphthalen-1-yl)-5-methylpyridine]: 1 to 50%; `C[C@]12CCCNCC1CCC1C2CC[C@]2(C)C(n3ccnn3)=CCC12` (stereo partly drawn) [Compound 140, (5aR,7aS)-5a,7a-dimethyl-8-(1H-1,2,3-triazol-1-yl)-1,2,3,4,5,5a,5b,6,7,7a,10,10a,10b,11,12,12a-hexadecahydrocyclopenta[5,6]naphtho[2,1-c]azepine]: 1 to 50%; `C[C@]12CCNCCC1CCC1C2CC[C@]2(C)C(n3ccnn3)=CCC12` (stereo partly drawn) [Compound 139, (5aS,7aS)-5a,7a-dimethyl-8-(1H-1,2,3-triazol-1-yl)-1,2,3,4,5,5a,5b,6,7,7a,10,10a,10b,11,12,12a-hexadecahydrocyclopenta[5,6]naphtho[1,2-d]azepine]: 1 to 50%.
`C[C@]12CC[C@H]3[C@@H](CC(F)C4(O)CC(=O)CC[C@]34C)[C@@H]1CC=C2c1cncc(F)c1` (stereo partly drawn) [Compound 324, (10R,13S)-6-fluoro-17-(5-fluoropyridin-3-yl)-5-hydroxy-10,13-dimethyl-4,5,6,7,8,9,10,11,12,13,14,15-dodecahydro-1H-cyclopenta[a]phenanthren-3(2H)-one]: the inhibition at 0.001 µM in assay [2] (setting [5]) was more than 50%. Moreover, the IC50 in assay [3] (setting [6]) is less than 11 nM.
For the compound `CC1=C2CCC3C4=CC=C(c5cccnc5)[C@@]4(C)CCC3[C@@]2(C)CCC1O` (stereo partly drawn) [Compound 299, (10R,13S)-4,10,13-trimethyl-17-(pyridin-3-yl)-2,3,6,7,8,9,10,11,12,13-decahydro-1H-cyclopenta[a]phenanthren-3-ol], in assay [2] (setting [7]), the inhibition at 0.001 µM was less than 10%. Also, the IC50 in assay [3] (setting [8]) was less than 11 nM.
For the compound `C[C@]12CC[C@@H](NC(=O)C3CCC3)CC1=CCC1C2CC[C@]2(C)C(c3cccnc3)=CCC12` (stereo partly drawn) [Compound 226, N-((3R,10R,13S)-10,13-dimethyl-17-(pyridin-3-yl)-2,3,4,7,8,9,10,11,12,13,14,15-dodecahydro-1H-cyclopenta[a]phenanthren-3-yl)cyclobutanecarboxamide], the inhibition at 0.001 µM in assay [2] (setting [7]) was more than 50%. Besides, in assay [3] (setting [8]), the IC50 is less than 11 nM.
Take `C[C@]12CC[C@H]3[C@@H](CC(F)C4(O)CC(=O)CC[C@]34C)[C@@H]1CC=C2c1cccnc1` (stereo partly drawn) [Compound 310e, (10R,13S)-6-fluoro-5-hydroxy-10,13-dimethyl-17-(pyridin-3-yl)-4,5,6,7,8,9,10,11,12,13,14,15-dodecahydro-1H-cyclopenta[a]phenanthren-3(2H)-one]: in assay [2] (setting [5]), the inhibition at 0.001 µM is more than 50%. For the same compound, the 50% inhibitory concentration (IC50) in assay [3] (setting [6]) is less than 11 nM.
